In US5156956A, “Transgultaminase” (Ajinomoto Co., Inc., priority 1987, dated 1992):

What was measured:
BTG-3 [1] = target: T1, BTG-3 (Streptomyces cinnamoneus, UniProt Q8GR90); assay: Influence of metal ions on activity; assay type: biochemical; settings: metal ion 1 mM; None = 100; 30 min
T1 construct: Ca2+-independent; made as pre-pro-protein
T1 sequence (Q8GR90 86-416): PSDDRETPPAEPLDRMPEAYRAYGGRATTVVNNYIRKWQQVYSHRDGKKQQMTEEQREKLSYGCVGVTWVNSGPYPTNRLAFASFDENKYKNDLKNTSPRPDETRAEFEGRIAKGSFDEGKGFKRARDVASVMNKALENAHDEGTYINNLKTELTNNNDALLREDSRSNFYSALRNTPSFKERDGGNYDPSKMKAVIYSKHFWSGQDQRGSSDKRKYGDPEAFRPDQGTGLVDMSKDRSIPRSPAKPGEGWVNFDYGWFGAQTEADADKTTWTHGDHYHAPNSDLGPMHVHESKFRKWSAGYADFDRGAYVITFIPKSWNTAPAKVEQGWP
Experimental: (§1) Measurement of the activity of BTGase is carried out by performing a reaction using benzyloxycarbonyl-L-glutaminyl glycine and hydroxylamine as substrates in the absence of Ca^2+, forming an iron complex with the resulting hydroxamic acid in the presence of trichloroacetic acid, measuring absorption at 525 nm and determining the amount of hydroxamic acid by a calibration curve to calculate the activity. The BTGase activity is measured by the method described below, unless otherwise indicated.
(§2) To 0.05 ml of an enzyme solution is added 0.5 ml of Reagent A and they are mixed with each other. After reacting at 37° C. for 30 minutes, Reagent B is added thereto to discontinue the reaction and form an Fe complex. Thereafter, absorbance is measured at 525 nm. […] Separately, a calibration curve is prepared using L-glutamic acid γ-monohydroxamio acid instead of the enzyme solution, and the amount of hydroxamic acid produced is determined by the difference in absorbance described above. An enzyme activity which produces 1 μmol of hydroxamic acid per 1 minute is defined as 1 unit.

BTG-1 [2] = target: T2, BTG-1 (Streptomyces mobaraensis, UniProt P81453); assay: Influence of metal ions on activity; assay type: biochemical, Streptoverticillium mobaraense IFO 13819; settings: metal ion 1 mM; None = 100; 30 min
T2 construct: BTGase is dissolved in the culture solution and can be harvested from the culture filtrate; endogenous in cells; host or cells: Streptoverticillium mobaraense IFO 13819 (natural producer; purified from culture filtrate)
T2 sequence (P81453 77-407): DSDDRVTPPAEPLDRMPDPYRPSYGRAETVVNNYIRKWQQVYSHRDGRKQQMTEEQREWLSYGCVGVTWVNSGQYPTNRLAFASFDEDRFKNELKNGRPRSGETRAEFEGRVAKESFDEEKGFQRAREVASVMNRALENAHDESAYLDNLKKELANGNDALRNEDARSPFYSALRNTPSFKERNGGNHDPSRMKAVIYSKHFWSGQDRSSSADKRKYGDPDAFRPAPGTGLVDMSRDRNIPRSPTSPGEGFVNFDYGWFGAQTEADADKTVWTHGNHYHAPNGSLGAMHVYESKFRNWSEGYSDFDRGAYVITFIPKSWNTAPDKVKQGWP
Experimental: as §1, §2

BTG-2 [3] = target: T3, BTG-2 (Streptomyces griseocarneus, UniProt A0ABX7RSJ1); assay type: biochemical, Streptoverticillium griseocarneum IFO 12776; settings: metal ion 1 mM; None = 100; 30 min
T3 construct: Ca2+-independent; made as pre-pro-protein
Experimental: as §1, §2

BTG-1 [4] = target: T2, BTG-1; assay: biochemical; design: species or system Streptoverticillium mobaraense IFO 13819
Experimental: as §1, §2

BTG-2 [5] = target: T3, BTG-2; assay: biochemical; design: species or system Streptoverticillium griseocarneum IFO 12776
Experimental: as §1, §2

BTG-3 [6] = target: T1, BTG-3; assay: biochemical
Experimental: as §1, §2

[7] = inhibitor 1 mM, 25° C. for 30 minutes, None = 100

Row | Compound | BTG-3 (%) activity with metal ion (BTG-3 [1]) [%] | BTG-1 (%) activity with metal ion (BTG-1 [2]) [%] | BTG-2 (%) activity with metal ion (BTG-2 [3]) [%] | other results
1 | [Cl-].[Cl-].[Co+2] [CoCl2] | 103 | 103 | 103 | –
2 | O=C(O)CN(CCN(CC(=O)O)CC(=O)O)CC(=O)O [EDTA] | – | – | – | inhibition at 1000 µM (BTG-1 [4]; read-out: BTG-1 (%) activity with inhibitor): 102%; inhibition at 1000 µM (BTG-2 [5]; read-out: BTG-2 (%) activity with inhibitor): 98%; inhibition at 1000 µM (BTG-3 [6]; read-out: BTG-3 (%) activity with inhibitor): 99%
3 | [Cl][Ni][Cl] [NiCl2] | – | – | 100 | –
4 | [Cl][Mn][Cl] [MnCl2] | 97 | – | 97 | –
5 | [Ba+2].[Cl-].[Cl-] [BaCl2] | 105 | 101 | 99 | –
6 | [Cl][Fe]([Cl])[Cl] [FeCl3] | 106 | 96 | 104 | –
7 | [Cl-].[Na+] [NaCl] | 101 | 99 | 102 | –
8 | [Cl-].[Cl-].[Mg+2] [MgCl2] | 103 | – | 104 | –
9 | CC(=O)[O-].CC(=O)[O-].[Pb+2] [Pb(CH3 COO)2] | 100 | 97 | 97 | –
10 | O=S(=O)(F)Cc1ccccc1 [PMSF, phenylmethylsulfonyl fluoride] | – | – | – | BTG-1 (%) activity with inhibitor (BTG-1 [4]; [7]): 104%; BTG-2 (%) activity with inhibitor (BTG-2 [5]; [7]): 95%; BTG-3 (%) activity with inhibitor (BTG-3 [6]; [7]): 101%
11 | [Cl-].[K+] [KCl] | 105 | 96 | 99 | –
12 | [Cl-].[Cl-].[Sr+2] [SrCl2] | 100 | 100 | 101 | –
